Drawing on US8829034B2, “Compounds which modulate the CB2 receptor” (Boehringer Ingerlheim International GmbH, priority 2006, dated 2014), this text covers EC50 and agonistic activity for 33 molecules.

This assay deals with T1, human CB2R (Homo sapiens, UniProt P34972).
T1 construct: host or cells: CHO cells
Put plainly: CB2R mediated modulation of cAMP synthesis. The following applies: for agonistic activity: found through the use of the above described assays. Format: cell-based. As for the experimental part:
B. CB2R Mediated Modulation of cAMP Synthesis:
CHO cells expressing human CB2R (Euroscreen) were plated at a density of 5000 cells per well in 384 well plates and incubated overnight at 37° C. After removing the media, the cells were treated with test compounds diluted in stimulation buffer containing 1 mM IBMX, 0.25% BSA and 10 uM Forskolin. The assay was incubated for 30 minutes at 37° C. Cells were lysed and the cAMP concentration was measured using DiscoverX-XS cAMP kit, following the manufacturer's protocol. In this setting, agonists will decrease forskolin induced production of cAMP while inverse agonists will further increase forskolin induced production of cAMP. EC50 of agonists were calculated as follows. The maximal amount of cAMP produced by forskolin compared to the level of cAMP inhibited by 1 uM CP55940 is defined as 100%. The EC50 value of each test compound was determined as the concentration at which 50% of the forskolin-stimulated cAMP synthesis was inhibited. Data was analyzed using a four-parameter logistic model. (Model 205 of XLfit 4.0).

Like-named read-outs stand apart in the source and are kept apart here.

T1 sequence (P34972 whole entry): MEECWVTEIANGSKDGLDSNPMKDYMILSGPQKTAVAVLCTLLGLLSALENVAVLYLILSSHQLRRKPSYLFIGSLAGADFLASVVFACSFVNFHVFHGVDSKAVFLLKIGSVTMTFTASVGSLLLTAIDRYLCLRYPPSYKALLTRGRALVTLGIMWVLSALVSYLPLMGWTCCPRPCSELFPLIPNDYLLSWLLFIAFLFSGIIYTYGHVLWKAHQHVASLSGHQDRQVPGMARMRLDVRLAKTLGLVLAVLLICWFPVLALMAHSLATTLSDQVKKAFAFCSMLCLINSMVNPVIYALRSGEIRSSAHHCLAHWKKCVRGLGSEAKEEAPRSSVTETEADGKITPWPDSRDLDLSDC

Broadly, the EC50 is the concentration giving half of the maximal effect. For `CC(C)(C)c1cc(NC(=O)C(C)(C)S(=O)(=O)CC2CCN(S(C)(=O)=O)C2)no1` (centres unmarked) [N-(5-tert-Butyl-isoxazol-3-yl)-2-(1-methanesulfonyl-pyrrolidin-3-ylmethanesulfonyl)-2-methyl-propionamide], the midpoint of the response, the EC50, lay at 44.1 nM and the agonistic activity result is “agonistic activity”.

For `CCCS(=O)(=O)C(C)(C)C(=O)Nc1cc(C(C)(C)C)on1` [N-(5-tert-Butyl-isoxazol-3-yl)-2-methyl-2-(propane-1-sulfonyl)-propionamide], the EC50 came out at 61.9 nM and the agonistic activity entry is recorded as “agonistic activity”.

With `CC(C)(C)c1cc(NC(=O)C(C)(C)S(=O)(=O)C2(C)CCOCC2)no1` [N-(5-tert-Butyl-isoxazol-3-yl)-2-methyl-2-(4-methyl-tetrahydro-pyran-4-sulfonyl)-propionamide], the EC50 amounted to 9.4 nM and the agonistic activity entry was “agonistic activity”.

Take `CCCS(=O)(=O)C(C)(C)C(=O)Nc1ccc(C(F)(F)F)cn1` [2-Methyl-2-(propane-1-sulfonyl)-N-(5-trifluoromethyl-pyridin-2-yl)-propionamide]: the agonistic activity entry is reported as “agonistic activity”.

On to `CC(C)(C)c1cc(NC(=O)C(C)(C)S(=O)(=O)CC2CCC2)on1` [N-(3-tert-Butyl-isoxazol-5-yl)-2-cyclobutylmethanesulfonyl-2-methyl-propionamide], for which the EC50 amounted to 3.7 nM and the agonistic activity entry is “agonistic activity”.

For `Cc1sc(NC(=O)C(C)(C)S(=O)(=O)CC2CCOCC2)nc1-c1ccccc1` [2-Methyl-N-(5-methyl-4-phenyl-thiazol-2-yl)-2-(tetrahydro-pyran-4-ylmethanesulfonyl)-propionamide], the EC50 was found to be 2.5 nM and the agonistic activity result is recorded as “agonistic activity”.

Regarding `CC(C)(C)c1csc(NC(=O)C(C)(C)S(C)(=O)=O)n1` [N-(4-tert-Butyl-thiazol-2-yl)-2-methanesulfonyl-2-methyl-propionamide], the agonistic activity entry is “agonistic activity”.

Consider `CC(C)S(=O)(=O)C(C)(C)C(=O)Nc1cccc(C(F)(F)F)n1` [2-Methyl-2-(propane-2-sulfonyl)-N-(6-trifluoromethyl-pyridin-2-yl)-propionamide], for which the agonistic activity result is listed as “agonistic activity”.

With `Cn1nc(C(C)(C)C)cc1NC(=O)C(C)(C)S(=O)(=O)CC1CCCO1` (centres unmarked) [N-(5-tert-Butyl-2-methyl-2H-pyrazol-3-yl)-2-methyl-2-(tetrahydro-furan-2-ylmethanesulfonyl)-propionamide], the agonistic activity entry is “agonistic activity”.

Take `CC(C)(C(=O)Nc1nc(-c2ccc(F)cc2)cs1)S(=O)(=O)CC1CCOCC1` [N-[4-(4-Fluoro-phenyl)-thiazol-2-yl]-2-methyl-2-(tetrahydro-pyran-4-ylmethanesulfonyl)-propionamide]: the EC50 worked out at 5.5 nM and the agonistic activity result is “agonistic activity”.

On to `CC(C)(C)c1cc(NC(=O)C(C)(C)S(=O)(=O)C2CC2)no1` [N-(5-tert-Butyl-isoxazol-3-yl)-2-cyclopropanesulfonyl-2-methyl-propionamide], for which the agonistic activity entry is “agonistic activity”.

`CC(C)CCS(=O)(=O)C(C)(C)C(=O)Nc1cc(C(C)(C)C)no1` [N-(3-tert-Butyl-isoxazol-5-yl)-2-methyl-2-(3-methyl-butane-1-sulfonyl)-propionamide]: the agonistic activity entry is recorded as “agonistic activity”. For the same molecule, the EC50 (CHO cells expressing human CB2R, inhibition of forskolin-stimulated cAMP synthesis, compounds having agonist activity, read-out: CB2 EC50) was found to be 0.04 nM.

Consider `CCCC(CC)S(=O)(=O)C(C)(C)C(=O)Nc1cc(C(C)(C)C)nn1C` (centres unmarked) [N-(5-tert-Butyl-2-methyl-2H-pyrazol-3-yl)-2-(hexane-3-sulfonyl)-2-methyl-propionamide], for which the agonistic activity result was “agonistic activity”.

Take `CC(C)(C)c1cc(NC(=O)C(C)(C)S(=O)(=O)CCCc2ccccc2)no1` [N-(5-tert-Butyl-isoxazol-3-yl)-2-methyl-2-(3-phenyl-propane-1-sulfonyl)-propionamide]: the agonistic activity result was “agonistic activity”.

For `CC(C)S(=O)(=O)C(C)(C)C(=O)Nc1nc(-c2ccccn2)cs1` [2-Methyl-2-(propane-2-sulfonyl)-N-(4-pyridin-2-yl-thiazol-2-yl)-propionamide], the agonistic activity entry is “agonistic activity”.

As to `CC(C)S(=O)(=O)C(C)(C)C(=O)Nc1cc(-c2cccs2)nn1C` [2-Methyl-N-(2-methyl-5-thiophen-2-yl-2H-pyrazol-3-yl)-2-(propane-2-sulfonyl)-propionamide], the agonistic activity result is “agonistic activity”.

For `CC(C)(C)c1cc(NC(=O)C(C)(C)S(=O)(=O)CC2CCCCO2)on1` (centres unmarked) [N-(3-tert-Butyl-isoxazol-5-yl)-2-methyl-2-(tetrahydro-pyran-2-ylmethanesulfonyl)-propionamide], the EC50 was determined as 0.2 nM and the agonistic activity result is recorded as “agonistic activity”.

As to `CC(C)(C)c1cc(NC(=O)C(C)(C)S(=O)(=O)C(C)(C)C)no1` [N-(5-tert-Butyl-isoxazol-3-yl)-2-methyl-2-(2-methyl-propane-2-sulfonyl)-propionamide], the agonistic activity result was “agonistic activity”.

With `CC(C)(C(=O)Nc1nc(C(F)(F)F)cs1)S(=O)(=O)C1CCCC1` [2-Cyclopentanesulfonyl-2-methyl-N-(4-trifluoromethyl-thiazol-2-yl)-propionamide], the agonistic activity result is on record as “agonistic activity”.

`CC(C)(C)c1nnc(NC(=O)C(C)(C)S(=O)(=O)CC2CCOCC2)s1` [N-(5-tert-Butyl-[1,3,4]thiadiazol-2-yl)-2-methyl-2-(tetrahydro-pyran-4-ylmethanesulfonyl)-propionamide]: the agonistic activity entry was “agonistic activity”.

`CC(C)(C(=O)Nc1nc2ccccc2o1)S(=O)(=O)CC1CCOCC1` [N-Benzooxazol-2-yl-2-methyl-2-(tetrahydro-pyran-4-ylmethanesulfonyl)-propionamide]: the agonistic activity entry was “agonistic activity”.

Take `CC(C)(C)c1cc(NC(=O)C(C)(C)S(=O)(=O)CC2CCOCC2)on1` [N-(3-tert-Butyl-isoxazol-5-yl)-2-methyl-2-(tetrahydro-pyran-4-ylmethanesulfonyl)-propionamide]: a half-maximal effect (EC50) was put at 4 nM and the agonistic activity entry is “agonistic activity”.

As to `CC(C)(C(=O)Nc1ccc(C(F)(F)F)cn1)S(=O)(=O)CC1CCNCC1` [2-Methyl-2-(piperidin-4-ylmethanesulfonyl)-N-(5-trifluoromethyl-pyridin-2-yl)-propionamide], the agonistic activity result was “agonistic activity”.

As to `CC(C)(C(=O)Nc1ccc(C(F)(F)F)cn1)S(=O)(=O)CC1CCCO1` (centres unmarked) [2-Methyl-2-(tetrahydro-furan-2-ylmethanesulfonyl)-N-(5-trifluoromethyl-pyridin-2-yl)-propionamide], the agonistic activity result is on record as “agonistic activity”.

Turning to `CCS(=O)(=O)C(C)(C)C(=O)Nc1cc(C(C)(C)C)nn1C` [N-(5-tert-Butyl-2-methyl-2H-pyrazol-3-yl)-2-ethanesulfonyl-2-methyl-propionamide], the agonistic activity entry was “agonistic activity”.

`CC(C)(C(=O)Nc1ccc(C(F)(F)F)cn1)S(=O)(=O)C1CCCCCC1` [2-Cycloheptanesulfonyl-2-methyl-N-(5-trifluoromethyl-pyridin-2-yl)-propionamide]: the midpoint of the response, the EC50, lay at 7.1 nM and the agonistic activity result is reported as “agonistic activity”.

As to `CC(C)c1cc(NC(=O)C(C)(C)S(=O)(=O)CC2CCOCC2)n(C)n1` [N-(5-Isopropyl-2-methyl-2H-pyrazol-3-yl)-2-methyl-2-(tetrahydro-pyran-4-ylmethanesulfonyl)-propionamide], the agonistic activity result is “agonistic activity”.

With `CC(C)(C)c1cc(NC(=O)C(C)(C)S(=O)(=O)C2CCCCCC2)no1` [N-(5-tert-Butyl-isoxazol-3-yl)-2-cycloheptanesulfonyl-2-methyl-propionamide], the EC50 worked out at 0.1 nM and the agonistic activity result is given as “agonistic activity”.

In the case of `CCCS(=O)(=O)C(C)(C)C(=O)Nc1cc(CC(C)(C)C)no1` [N-[3-(2,2-Dimethyl-propyl)-isoxazol-5-yl]-2-methyl-2-(propane-1-sulfonyl)-propionamide], the agonistic activity result is “agonistic activity”.

Consider `CC(C)(C)c1cc(NC(=O)C(C)(C)S(=O)(=O)CC2CC2)no1` [N-(5-tert-Butyl-isoxazol-3-yl)-2-cyclopropylmethanesulfonyl-2-methyl-propionamide], for which the EC50 is 34.3 nM and the agonistic activity entry is “agonistic activity”.

As for `CC(C)(C)c1cc(NC(=O)C(C)(C)S(=O)(=O)Cc2ccc(Cl)cc2)no1` [N-(5-tert-Butyl-isoxazol-3-yl)-2-(4-chloro-phenylmethanesulfonyl)-2-methyl-propionamide], the EC50 was 16.6 nM and the agonistic activity entry is recorded as “agonistic activity”.

In the case of `CC(C)(C(=O)Nc1nc(-c2ccccc2)ns1)S(=O)(=O)CC1CCOCC1` [2-Methyl-N-(3-phenyl-1,2,4-thiadiazol-5-yl)-2-(tetrahydro-pyran-4-ylmethanesulfonyl)-propionamide], the agonistic activity result is given as “agonistic activity”.

Turning to `Cc1nc(NC(=O)C(C)(C)S(=O)(=O)C(C)C)sc1C(C)(C)C` [N-(5-tert-Butyl-4-methyl-thiazol-2-yl)-2-methyl-2-(propane-2-sulfonyl)-propionamide], the EC50 came out at 25.8 nM and the agonistic activity entry is given as “agonistic activity”.
